Source: patent US10588317B2, “Isoxazoline-substituted benzamides and analogues as insecticides” (priority 2015, dated 2020)

Tests used:
Assay type in all cases: in vivo
Diabrotica balteata = Diabrotica balteata (corn root worm), sprayed maize sprouts; details: 96 h, application rate 200 ppm, L2 larvae, 4 days after infestation, read-out: effect in at least one of the two categories (mortality or growth inhibition)
Summary of the method: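 Maize sprouts on agar sprayed with aqueous dilutions of DMSO stocks, dried, then infested with L2 larvae (6–10 per well). Mortality and growth inhibition scored against untreated controls 4 days after infestation, at 200 ppm application rate.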

Euschistus heros = Euschistus heros (neotropical brown stink bug), sprayed soybean leaves; details: 120 h, application rate 200 ppm, N2 nymphs, 5 days after infestation, read-out: effect in at least one of the two categories (mortality or growth inhibition)
Summary of the method: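 Soybean leaves on agar sprayed with aqueous dilutions of DMSO stocks, dried, then infested with N2 nymphs. Mortality and growth inhibition scored against untreated samples 5 days after infestation; application rate 200 ppm.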

Myzus persicae = Myzus persicae (green peach aphid): feeding/contact activity; details: 144 h, application rate 200 ppm, aphid population of mixed ages, 6 days after infestation, read-out: mortality
Description: (§1) Sunflower leaf discs were placed onto agar in a 24-well microtiter plate and sprayed with aqueous test solutions prepared from 10'000 ppm DMSO stock solutions. After drying, the leaf discs were infested with an aphid population of mixed ages. The samples were assessed for mortality 6 days after infestation.

Plutella xylostella = Plutella xylostella (diamond back moth), artificial diet; details: 120 h, application rate 200 ppm, L2 larvae, 5 days after infestation, read-out: effect in at least one of the two categories (mortality or growth inhibition)
Summary of the method: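 Artificial diet in 24-well plates treated with aqueous test solutions made from 10'000 ppm DMSO stocks, dried, then infested with L2 larvae (10 to 15 per well). Mortality and growth inhibition scored against untreated samples 5 days after infestation; activity cut-off at least 80% in either category at 200 ppm.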

Spodoptera littoralis = Spodoptera littoralis (Egyptian cotton leaf worm), sprayed cotton leaf discs; details: foliar, 72 h, application rate 200 ppm, L1 larvae, 3 days after infestation, read-out: control (mortality, anti-feeding effect, growth inhibition)
Summary of the method: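 Cotton leaf discs on agar sprayed with aqueous test solutions made from 10'000 ppm DMSO stock; after drying, infested with five L1 larvae. Mortality, anti-feeding and growth inhibition scored versus untreated samples 3 days after infestation; control counted when any category exceeds untreated.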

Tetranychus urticae = Tetranychus urticae (two-spotted spider mite): feeding/contact activity; details: 192 h, application rate 200 ppm, mixed population (mobile stages), 8 days after infestation, read-out: mortality
Description: Bean leaf discs on agar in 24-well microtiter plates were sprayed with aqueous test solutions prepared from 10'000 ppm DMSO stock solutions. After drying the leaf discs were infested with a mite population of mixed ages. The samples were assessed for mortality on mixed population (mobile stages) 8 days after infestation.

Thrips tabaci = Thrips tabaci (onion thrips): feeding/contact activity; details: 144 h, application rate 200 ppm, Thrips population of mixed ages, 6 days after infestation, read-out: mortality
Description: as §1, with “on” for “onto”, “in” for “in a”, “plates” for “plate”, “drying” for “drying,”, “a Thrips” for “an aphid”

Cc1cc(C2=NO[C@@](c3cc(Cl)cc(Cl)c3)(C(F)(F)F)C2)ccc1C(=O)N[C@@H]1CON(S(=O)(=O)CBr)C1 [Compound A173, N-[(4S)-2-(bromomethylsulfonyl)-1,2-oxazolidin-4-yl]-4-[(5S)-5-(3,5-dichlorophenyl)-5-(trifluoromethyl)-4H-1,2-oxazol-3-yl]-2-methylbenzamide]
≥ 80%: percent effect (mortality or growth inhibition) at 200 ppm (Diabrotica balteata) | percent effect (mortality or growth inhibition) at 200 ppm (Euschistus heros) | mortality at 200 ppm (Myzus persicae) | percent effect (mortality or growth inhibition) at 200 ppm (Plutella xylostella) | mortality at 200 ppm (Spodoptera littoralis) | mortality at 200 ppm (Tetranychus urticae) | mortality at 200 ppm (Thrips tabaci)

Cc1cc(C2=NO[C@@](c3cc(Cl)c(OC(F)F)c(Cl)c3)(C(F)(F)F)C2)ccc1C(=O)N[C@@H]1CON(S(C)(=O)=O)C1 [Compound A204, 4-[(5S)-5-[3,5-dichloro-4-(difluoromethoxy)phenyl]-5-(trifluoromethyl)-4H-1,2-oxazol-3-yl]-2-methyl-N-[(4S)-2-methylsulfonyl-1,2-oxazolidin-4-yl]benzamide]
≥ 80%: percent effect (mortality or growth inhibition) at 200 ppm (Diabrotica balteata) | percent effect (mortality or growth inhibition) at 200 ppm (Euschistus heros) | mortality at 200 ppm (Myzus persicae) | percent effect (mortality or growth inhibition) at 200 ppm (Plutella xylostella) | mortality at 200 ppm (Spodoptera littoralis) | mortality at 200 ppm (Tetranychus urticae) | mortality at 200 ppm (Thrips tabaci)

Cc1cc(C2=NO[C@@](c3cc(Cl)cc(Cl)c3)(C(F)(F)F)C2)ccc1C(=O)N[C@@H]1CON(S(=O)(=O)CF)C1 [Compound A210]
≥ 80%: percent effect (mortality or growth inhibition) at 200 ppm (Diabrotica balteata) | percent effect (mortality or growth inhibition) at 200 ppm (Euschistus heros) | mortality at 200 ppm (Myzus persicae) | percent effect (mortality or growth inhibition) at 200 ppm (Plutella xylostella) | mortality at 200 ppm (Spodoptera littoralis) | mortality at 200 ppm (Tetranychus urticae) | mortality at 200 ppm (Thrips tabaci)

CCN(C(=O)OC(C)(C)C)S(=O)(=O)N1CC(NC(=O)c2ccc(C3=NO[C@@](c4cc(Cl)c(F)c(Cl)c4)(C(F)(F)F)C3)cc2C)CO1 (stereo partly drawn) [Compound A93, tert-butyl N-[4-[[4-[(5S)-5-(3,5-dichloro-4-fluoro-phenyl)-5-(trifluoromethyl)-4H-isoxazol-3-yl]-2-methyl-benzoyl]amino]isoxazolidin-2-yl]sulfonyl-N-ethyl-carbamate]
≥ 80%: percent effect (mortality or growth inhibition) at 200 ppm (Diabrotica balteata) | percent effect (mortality or growth inhibition) at 200 ppm (Euschistus heros) | mortality at 200 ppm (Myzus persicae) | percent effect (mortality or growth inhibition) at 200 ppm (Plutella xylostella) | mortality at 200 ppm (Spodoptera littoralis) | mortality at 200 ppm (Tetranychus urticae) | mortality at 200 ppm (Thrips tabaci)

CCN(C1CC1)S(=O)(=O)N1C[C@@H](NC(=O)c2ccc(C3=NO[C@@](c4cc(Cl)cc(Cl)c4)(C(F)(F)F)C3)cc2Cl)CO1 [Compound A157]
≥ 80%: percent effect (mortality or growth inhibition) at 200 ppm (Diabrotica balteata) | percent effect (mortality or growth inhibition) at 200 ppm (Euschistus heros) | mortality at 200 ppm (Myzus persicae) | percent effect (mortality or growth inhibition) at 200 ppm (Plutella xylostella) | mortality at 200 ppm (Spodoptera littoralis) | mortality at 200 ppm (Tetranychus urticae) | mortality at 200 ppm (Thrips tabaci)

Cc1cc(C2=NO[C@@](c3cc(Cl)c(F)c(Cl)c3)(C(F)(F)F)C2)ccc1C(=O)N[C@H]1CON(S(=O)(=O)CBr)C1 [Compound A189, N-[(4R)-2-(bromomethylsulfonyl)-1,2-oxazolidin-4-yl]-4-[(5S)-5-(3,5-dichloro-4-fluorophenyl)-5-(trifluoromethyl)-4H-1,2-oxazol-3-yl]-2-methylbenzamide]
≥ 80%: percent effect (mortality or growth inhibition) at 200 ppm (Diabrotica balteata) | percent effect (mortality or growth inhibition) at 200 ppm (Euschistus heros) | mortality at 200 ppm (Myzus persicae) | percent effect (mortality or growth inhibition) at 200 ppm (Plutella xylostella) | mortality at 200 ppm (Spodoptera littoralis) | mortality at 200 ppm (Tetranychus urticae) | mortality at 200 ppm (Thrips tabaci)

Cc1cc(C2=NO[C@@](c3cc(Cl)c(Cl)c(Cl)c3)(C(F)(F)F)C2)ccc1C(=O)NC1CON(S(=O)(=O)N(C)Cc2ccccc2)C1 (stereo partly drawn) [Compound A86, N-[2-[benzyl(methyl)sulfamoyl]isoxazolidin-4-yl]-2-methyl-4-[(5S)-5-(3,4,5-trichlorophenyl)-5-(trifluoromethyl)-4H-isoxazol-3-yl]benzamide]
≥ 80%: percent effect (mortality or growth inhibition) at 200 ppm (Diabrotica balteata) | percent effect (mortality or growth inhibition) at 200 ppm (Euschistus heros) | mortality at 200 ppm (Myzus persicae) | percent effect (mortality or growth inhibition) at 200 ppm (Plutella xylostella) | mortality at 200 ppm (Spodoptera littoralis) | mortality at 200 ppm (Tetranychus urticae) | mortality at 200 ppm (Thrips tabaci)
